Laboratory results as given in patent publication US11458132B2, “Quinolin-2(1H)-one inhibitors of Late SV40 Factor” (TRUSTEES OF BOSTON UNIVERSITY, priority 2020, dated 2022).

Legend:
Huh7 cells = test: Growth inhibition curves in Huh7 cells; type: cell-based; conditions: Homo sapiens, Huh-7
LSF and β-catenin = target: T1, LSF and β-catenin (Homo sapiens, UniProt Q12800); test: Immunoprecipitation of β-catenin probed for LSF in CRC cells; type: cell-based; conditions: 1 μM, 16 hours, HT-29 and HCT-116 cells
T1 construct: In both these cell lines, LSF co-immunoprecipitated with β-catenin; endogenous in cells; host or cells: HT-29 and HCT-116
T1 sequence (Q12800 1-502): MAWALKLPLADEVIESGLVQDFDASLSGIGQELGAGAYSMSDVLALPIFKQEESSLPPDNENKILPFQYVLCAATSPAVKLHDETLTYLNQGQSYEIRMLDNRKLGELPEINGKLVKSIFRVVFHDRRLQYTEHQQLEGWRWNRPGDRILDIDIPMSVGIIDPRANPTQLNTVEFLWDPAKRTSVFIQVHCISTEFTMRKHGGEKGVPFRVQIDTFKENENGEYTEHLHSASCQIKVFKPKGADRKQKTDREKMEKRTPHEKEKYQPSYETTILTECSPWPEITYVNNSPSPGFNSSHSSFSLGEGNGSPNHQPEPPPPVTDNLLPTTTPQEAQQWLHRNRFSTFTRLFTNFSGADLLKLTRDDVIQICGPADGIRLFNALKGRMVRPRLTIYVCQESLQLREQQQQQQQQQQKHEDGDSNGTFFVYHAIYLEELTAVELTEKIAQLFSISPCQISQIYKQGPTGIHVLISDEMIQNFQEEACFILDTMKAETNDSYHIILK
Source text: Immunoprecipitation: The CRC cells were harvested. Proteins of interest were immunoprecipitated using the indicated antibodies at 1:100 concentration. The eluents were resolved by SDS polyacrylamide gel electrophoresis and probed with the indicated antibodies. All the antibodies for immunoblot and immunoprecipitation were acquired from Cell Signaling and were used at the recommended concentrations.

[1] = tested on: RhoA/ROCK pathway in FH-B cells; test: Phospho-MLC2 immunoblot (RhoA/ROCK pathway); type: cell-based, human; conditions: 4 μM FQI1, 10 minutes
Description: For analysis of phosphorylated MLC2, FH-B cells were treated as indicated in the figure legend, washed with PBS and incubated for 5 minutes in lysis buffer (50 mM Tris-HCl pH 8.0, 50 mM NaF, 5 mM MgCl2, 150 mM NaCl, 1% Triton X-100) supplemented with Tricine Sample Buffer (Bio-rad, 1610739), protease inhibitor cocktail (1:200), phosphatase inhibitor cocktail (1:100), and 1% ([…]. Lysates were incubated at 100° C. for 15 minutes and centrifuged at 21,000×g for 10 minutes prior to SDS-PAGE.
Gel electrophoresis and immunoblotting: Microtubule sedimentation fractions and MLC2 analysis samples were separated by electrophoresis through tris-glycine and tricine polyacrylamide gels, respectively, which were transferred to PVDF membranes. Membranes with microtubule sedimentation fractions and MLC2 analysis samples were blocked in 5% milk in TBST and in 5% BSA in TBST, respectively. After overnight incubation with primary antibody at 4° C., the membranes were washed and incubated with secondary antibody for 1 hour at room temperature. Primary antibodies included anti-α-tubulin (1:2,000, Thermo Fisher Scientific, PA529444), anti-acetylated tubulin (1:1,000, Sigma-Aldrich, T7451), anti-phospho MYL9 (1:200, Thermo Fisher Scientific, PA517727), and anti-β-actin (1:5,000, Sigma-Aldrich, A1978). […] Band intensities were quantified from scanned films by densitometry using ImageJ.

RPE cells = test: Analysis of microtubule features by immunofluorescence; type: cell-based
Description: (§1) Analysis of microtubule features by immunofluorescence: Because Y-27632 diminishes FQI1-induced cell compaction (FIGS. 10C and 10D) without affecting microtubule levels (FIGS. 9A and 9B), cells were pretreated with Y-27632 in order to maintain overall cellular shape, facilitating capture of structural or positional impact of FQI1 on microtubules. In addition, only cells with cell spreading areas larger than 1000 μm^2 were considered. Cells were seeded overnight in high n-dishes, treated as indicated in the figure legends, fixed with formaldehyde as described above, blocked in 5% BSA in PBS and stained overnight at 4° C. with anti-γ-tubulin (1:500, Abcam, ab11316) and anti-α-tubulin (1:500, Fisher Scientific, 62204). Samples were then incubated in goat anti-rabbit Cy5 (1:1000, Invitrogen, A10523), goat anti-mouse Alexa Fluor 546 (1:1000, Thermo Fisher Scientific, A11003), and Phalloidin-iFluor 488 Reagent. Hoechst 33342 and mounting medium were applied, before acquiring Z stack images at 60× magnification on an Olympus Fluoview 10i microscope.
(§2) Using ImageJ, binary Z projections of Phalloidin and Hoechst channel stacks were merged with Z projections with average intensity of the α-tubulin channels. The Phalloidin channel was used as the region of interest for measurement of “integrated density” of the total α-tubulin intensity, which was plotted into swarmplots.
(§3) To assess distribution of visible microtubule ends, the Hoechst, γ-tubulin, and α-tubulin stacks were converted into Z projections with maximum intensity. The Hoechst and γ-tubulin Z projections were thresholded and all channels were merged. A line was generated between the γ-tubulin signal and the center of the nucleus to identify the axis of cell movement; a line perpendicular to the first line and running through the center point of the nucleus divided the cell into posterior and anterior portions. Visible microtubule ends were counted using the Cell Counter plugin, excluding unattached microtubule fragments.

FH-B cells [2] = test: Cell cycle analysis by flow cytometry; type: cell-based, human; conditions: asynchronous FH-B cells, 4 μM FQI1, 1 hour
Description: Cell cycle analysis by flow cytometry: After trypsinization, subsequent steps prior to staining were performed at 4° C. Cells in PBS were transferred dropwise into ethanol (final concentration of 70%) for overnight incubation. Fixed cells were washed with PBS and then incubated in 50 μg/ml propidium iodide and 10 μg/ml RNase A in PBS for 45 minutes at room temperature. After passage through a cell strainer, cell fluorescence was measured using a Becton Dickinson FACSCalibur. Ten thousand events were counted per sample. Histogram plots were generated using FlowJo.

FH-B cells [3] = test: Analysis of microtubule features by immunofluorescence; type: cell-based, human
Description: as §1, §2, §3

| GI50 (Huh7 cells) [nM] | interaction of LSF and β-catenin (co-immunoprecipitation) (LSF and β-catenin) | SMILES | phosphorylation of MLC2 [1] | front-rear pattern of visible microtubule ends (RPE cells; 4 μM FQI1) | overall α-tubulin intensity (RPE cells; 4 μM FQI1, 10 minutes, Y-27632 pretreated) | increase in the number of individually discernible microtubule ends (RPE cells; 4 μM FQI1, 10 minutes, vs vehicle) [fold] | cell cycle phases by cellular DNA profiling (FH-B cells [2]) | anterior-posterior patterning of visible microtubule ends (FH-B cells [3]; 4 μM FQI1) | overall α-tubulin intensity (FH-B cells [3]; 4 μM FQI1, 30 minutes, Y-27632 pretreated) | increase in the number of individually discernible microtubule ends (FH-B cells [3]; 4 μM FQI1, 30 minutes, vs vehicle) [fold] |
| --- | --- | --- | --- | --- | --- | --- | --- | --- | --- | --- |
| 22.2 | consistently reduced this interaction | CCOc1cc(N(C)C)ccc1-c1cc(=O)[nH]c2cc3c(cc12)OCO3 [FQI2-34, 8-(4-(dimethylamino)-2-ethoxyphenyl)-[1,3]dioxolo[4,5-g]quinolin-6(5H)-one] |  |  |  |  |  |  |  |  |
|  |  | CCOc1ccccc1C1CC(=O)Nc2cc3c(cc21)OCO3 (stereo not shown) [FQI1, 8-(2-ethoxyphenyl)-7,8-dihydro-[1,3]dioxolo[4,5-g]quinolin-6(5H)-one] | elevated | shifted to a more anterior distribution | significant decrease in overall α-tubulin intensity | 2.5 | no apparent shift in cell cycle phases | largely unaffected | significant decrease in overall α-tubulin intensity | 2.7 |
